Where no end group is shown, it is not given here.
Key:
HHD transgenic mice = assay: Induction of specific CTLs in HHD transgenic mice by immunization with variant MAGE-A peptides; 51Cr cytotoxicity on peptide-loaded RMAS-HHD targets; assay type: in vivo; conditions: HHD mice, 100 μg s.c. in Freund's incomplete adjuvant; RMAS-HHD targets, effector/target 40/1
Description: The immunogenicity of the variant peptides p174Y1V10, p262L2 and p248V9 was evaluated by generation of CTLs on HHD transgenic mice (PASCOLO et al., J. Exp. Med., 185, 2043, 1997). These mice are β2m−/−, D^b−/− and express an HLA-A*0201 single chain made up of the α1 and α2 domains of HLA-A*0201 and the α3 and intracellular domains of D^b, linked via its N-terminal to the C-terminal of human β2-microglobulin, via a peptide of 15 amino acids.
The HHD mice are given a subcutaneous injection at the base of the tail with 100 μg of each variant peptide to be tested, emulsified in Freund's incomplete adjuvant, in the presence of 140 μg of a T-helper epitope derived from the HBV “core” antigen (128-140, sequence […]).
After 11 days, spleen cells taken from the mice (5×10^7 cells in 10 ml) are stimulated in vitro with the test peptide (10 μM). On the 6th day of culture, the populations which respond are tested in order to determine a specific cytotoxicity. The cells which respond are restimulated in vitro at one-week intervals with 2×10^7 irradiated (3000 rads) HHD spleen cells and 1 to 0.1 μM of peptide in the presence of 50 IU/ml of recombinant IL2 (Proleukin, Chiron Corp).
Cytotoxicity assays are carried out 6 days after the final stimulation.
RMAS-HHD cells are used as targets to study the cytotoxicity. The cells are obtained by transfection of murine RMAS cells with the HHD construct as described by PASCOLO et al. (J. Exp. Med., 185, 2043, 1997).
These target cells are labeled with 100 μCi of ^51Cr for 90 minutes, and then washed three times and plated out in round-bottomed 96-well plates (3×10^3 cells/well in 100 μl of RPMI 1640+3% of fetal calf serum). They are loaded with various concentrations of test peptide (variant, native peptide, or irrelevant control peptide), at 37° C. for 90 minutes.
Next, 100 μl of the effector cells (effector cell/target cell ratio=40/1) are added to the wells and the plates are incubated at 37° C. for 4 hours. After incubation, 100 μl of supernatant are collected and the radioactivity is measured in a γ-counter.
The percentage of specific lysis is calculated by means of the formula: [(experimental ^51Cr release−spontaneous ^51Cr release)/(maximum ^51Cr release−spontaneous ^51Cr release)]×100. In all the experiments, the spontaneous release is less than 20% of the maximum release induced with 3N HCl.

RMAS-HHD target cells = assay: Cytotoxicity assay with CTL lines 1R5 and 2R5 (HHD mice immunized with p911Y1V9) on peptide-loaded RMAS-HHD target cells; assay type: cell-based, murine; conditions: for CTL response (specific lysis) to RMAS-HHD cells loaded with the peptide: CTL lines 1R5 and 2R5 induced with p911Y1V9, 10 μM peptide
Description: Two CTL lines, called 1R5 and 2R5, were established from the spleen cells of HHD mice immunized with the variant peptide p911Y1V9, according to the same protocol as that described in example 1.
Cytotoxicity assays were carried out as described in example 2. For this, RMAS-HHD target cells loaded with 10 μM of the test peptides (variant or native peptides) were incubated in the presence of cells of the two CTL lines 1R5 and 2R5.
The percentage specific lysis values observed in the presence of the 1R5 (□) and 2R5 (▪) lines and for the various peptides tested are given in FIG. 5.

RMAS-HHD cells = assay: Intracellular IFNγ production of CTL line 1R5 with peptide-loaded RMAS-HHD cells; assay type: cell-based, murine; conditions: for response of CD8+ cells of CTL line 1R5 to RMAS-HHD cells loaded with the peptide: intracellular IFNγ production
Description: The response of the cells of the CTL line 1R5 with respect to the RMAS-HHD cells loaded with the various peptides was also evaluated by assaying the intracellular IFNγ production.
For this, the cells of the CTL line 1R5 are incubated in the presence of RMAS-HHD cells loaded with the variant peptide p911Y1V9, the native peptides HER1 911, HER2,3 911 or HER4 911, or an irrelevant peptide, and in the presence of 20 μg/ml of Brefeldine-A (Sigma). After 6 hours, the cells are washed, labeled with an anti-CD8 antibody conjugated to r-phycoerythrin, and incubated in PBS for 25 min at 4° C. They are then again washed, before being fixed with a 4% paraformaldehyde solution. The cells are then permeabilized with saponin (Sigma) at 0.2% in PBS, and labeled with an anti-IFNγ monoclonal antibody conjugated to allophycocyanin (Pharmingen).
The cells are then analyzed by flow cytometry (FACSCalibur™ (Becton Dickinson) and CellQuest™ software).

HLA-A*0201 = molecular target: T1, HLA-A*0201 (Homo sapiens, UniProt P04439, D140Y/D185E/D98H/E176V/E277Q/G131W/G231S/I119V/I121R/I166T/I218V/L300P/L318F/N151K/N90K/P208A/P217A/Q86G/Q94H/R138H/R169H/T345S); assay: Relative affinity (RA) of peptides for HLA-A*0201 on T2 cells, flow cytometry with BB7.2; assay type: binding; conditions: for RA (relative affinity for HLA-A*0201): ratio of peptide concentration to reference peptide (HIVpol 589) concentration inducing 20% of fluorescence obtained with 100 μM reference, T2 cells, lower RA = stronger binding
T1 construct: prevent the expression at their surface of newly synthesized HLA-A*0201 molecules; endogenous in cells; host or cells: human T2 cells (TAP-deficient)
Description: The affinity of the selected peptides for HLA-A*0201 was defined by two parameters: the relative affinity (RA); which reflects the ability of the peptides to bind to HLA-A*0201, and the rate of dissociation of the HLA-A*0201/peptide complexes (DC50), which reflects their stability. The peptides with high affinity (RA<5 and DC50>2 hours) are potentially immunogenic, unlike the peptides with low affinity (RA>5 and DC50<2 hours).
Human T2 cells (FIRAT et al., Eur. J. Immunol., 29, 3112, 1999) (3×10^5 cells/ml), which are deficient in TAP transporters, are incubated at 37° C. for 16 hours with various concentrations (100 μM, 10 μM, 1 μM, 0.1 μM) of each test peptide in serum-free RPMI 1640 medium supplemented with 100 ng/ml of human β2-microglobulin. Next, they are washed twice and labeled with the monoclonal antibody BB7.2 (PARHAM et al., Hum. Immunol., 3, 4, 277-299, 1981) which is specific for the HLA-A*0201 molecule, and then with a goat anti-mouse Ig antibody coupled to fluorescein isothiocyanate (FITC).
The cells are then analyzed by flow cytometry. For each concentration of peptide, the specific HLA-A*0201 fluorescence is calculated as a percentage of the fluorescence obtained with 100 μM of a reference peptide (HIVpol 589; […] (SEQ ID No: 1)). The relative affinity (RA) is defined as the ratio of the concentration of each peptide that induces 20% of the fluorescence obtained with 100 μM of the reference peptide, to the concentration of the reference peptide that induces 20% of the fluorescence obtained with 100 μM of said reference peptide. The lower the relative affinity, the stronger the binding of the peptide to HLA-A*0201. The mean RA for each peptide is determined from at least three independent experiments. In all the experiments, 20% of the maximum fluorescence was obtained for 1 to 3 μM of the reference peptide.
The relative affinity (RA) of the selected variant peptides for HLA-A*0201 was measured as described in example 1.

Sequence | CTL response (specific lysis) to RMAS-HHD cells loaded with the peptide (RMAS-HHD target cells) | response of CD8+ cells of CTL line 1R5 to RMAS-HHD cells loaded with the peptide (RMAS-HHD cells) | RA (relative affinity for HLA-A*0201) (HLA-A*0201) | further results
YLFLWGPRA (not fully specified) [p262L2] | – | – | – | CTL response generated by immunization with the variant peptide (HHD transgenic mice): induces CTLs capable of recognizing this peptide, but not the native p262 peptide
TVWELMTFGS (listed as Homo sapiens) [HER1 911] | induce a CTL response | response of the CD8+ cells of the CTL line 1R5 | – | –
CLGLSYDGLL [p174] | – | – | – | affinity for HLA-A*0201 (in words) (HLA-A*0201; low affinity = RA>5 and DC50<2 hours): low affinity
YICTIDVYMV (not fully specified) [p945Y1V9] | – | – | >100 | –
YLAARNVLV (not fully specified) [p845Y] | – | – | >100 | –
YVWSYGVTV (not fully specified) [p904Y] | – | – | >100 | –
TIWELMTFGG (listed as Homo sapiens) [HER4 911] | induce a CTL response | response of the CD8+ cells of the CTL line 1R5 | – | –
YLLEKGERL (not fully specified) [p933Y] | – | – | >100 | –
YVWELMTFGV (not fully specified) [p911Y1V9] | induce a CTL response | response of the CD8+ cells of the CTL line 1R5 | – | CTLs generated by the variant peptide, killing of loaded RMAS-HHD target cells (RMAS-HHD target cells; CTL lines 1R5 and 2R5, targets loaded with 10 μM peptide): generates CTLs which kill the RMAS-HHD target cells loaded with the variant peptide p911Y1V9, but also with the native peptides HER1 911, HER2,3 911 or HER4 911; CTLs induced by the variant peptide, recognition by IFNγ production (RMAS-HHD cells; CTL line 1R5): induces CTLs capable of recognizing this variant peptide, but also the native peptides from which it is derived
YVKVLGSGV (not fully specified) [p722Y1V9] | – | – | >100 | –
TVWELMTFGA (listed as Homo sapiens) [HER2,3 911] | induce a CTL response | response of the CD8+ cells of the CTL line 1R5 | – | –
